Measured values as given in ChEMBL document CHEMBL1157539, “Thousands of chemical starting points for antimalarial lead identification” (Nature, 2010).

Tested on: Plasmodium falciparum
Experiment: GSK_TCMDC: Inhibition of Plasmodium falciparum 3D7 in whole erythrocytes, using parasite LDH activity as an index of growth.
Assay type: functional, organism-based

Row | Structure (SMILES) | XC50 (Plasmodium falciparum, 3D7) [nM] | XC50 [nM]
1 | CN(CCC(CCN1CCC(c2c[nH]c3ccccc23)CC1)c1ccccc1)C(=O)Nc1ccc(Cl)c(Cl)c1 (stereo unspecified) | 1190 | –
2 | COc1ccc2nccc([C@@H](O)CN3CCC(NCc4cc5sccc5nc4C(F)(F)F)CC3)c2c1 | 913 | –
3 | CCCC(=O)Nc1ccc(OCCCN(Cc2ccccc2C(F)(F)F)c2ccc(C#N)c(C(F)(F)F)c2)cc1 | 926 | –
4 | Cc1cccc(C(=O)Nc2ccc(N3CCCN(Cc4cccc(O)c4)CC3)cc2)c1 | 1420 | –
5 | CC(=O)Nc1cccc(C(=O)Nc2cccc(-c3ccc(-c4nc5cc(F)ccc5[nH]4)cc3)c2)c1 | 764 | –
6 | CCNc1cc(C(=O)N[C@@H](Cc2ccccc2)[C@H](O)CNC2CCC(C)(C)CC2)cc(N2CCCCS2(=O)=O)c1 | 647 | –
7 | Cn1cncc1C(=O)Nc1cccc(-c2cccc(-c3nc4ccccc4[nH]3)c2)c1 | 635 | –
8 | COc1ccccc1CCNc1nc(C)cc(N[C@@H](CC(C)C)C(=O)NCc2cccc(F)c2)n1 | 973 | –
9 | CN1CCC(C(=O)Nc2ccc(-c3ccc(-c4nc5ccccc5[nH]4)cc3)cc2)CC1 | 976 | –
10 | N#Cc1cccc(CN2CCCN(Cc3ccc(C(=O)Nc4ccc(Cl)cc4)cc3)CC2)c1 | 882 | –
11 | Clc1ccc(-c2ccc(C=NNc3nc(=Nc4ccccc4)[nH]c(=Nc4ccccc4)[nH]3)o2)cc1Cl | 736 | –
12 | Cc1[nH]c2ccc(NS(C)(=O)=O)cc2c1C1CCN(CCC2CCN(C(=O)/C=C/c3ccc(Cl)c(Cl)c3)CC2)CC1 | 844 | –
13 | Cc1nc(C(C)Nc2nncc(-c3ccc(Cl)cc3)n2)cs1 (stereo unspecified) | 1330 | –
14 | NC1=NC(CCc2ccccc2)N(c2ccc(Cl)cc2)C(N)=N1 (stereo unspecified) | 38 | –
15 | NC(Cc1cccc(I)c1)C(=O)NCC1CCCO1 (stereo unspecified) | 895 | –
16 | COC(=O)c1ccc2c(c1)nc(Nc1cccc(F)c1)n2CC(O)c1ccccn1 (stereo unspecified) | 728 | –
17 | COc1cc(NC(=O)/C=C/c2cccc3ccoc23)ccc1OCCN(C(C)C)C(C)C | 1040 | –
18 | Cc1nc(C)c(-c2ccc(Oc3ccc(Cl)cc3Cl)cc2)c(O)c1Br | 297 | –
19 | CCC(C)NC(=O)Nc1ccc(-c2cccc(-c3nc4ccccc4[nH]3)c2)cc1 (stereo unspecified) | 821 | –
20 | O=C(Nc1cccc(CN2CCCN(Cc3ncc[nH]3)CC2)c1)c1ccc(-c2ccccc2)cc1 | 654 | –
21 | COc1ccccc1C1CN(Cc2coc3ccccc3c2=O)Cc2ccccc2O1 (stereo unspecified) | 1320 | –
22 | CN(C)CCC1CCN(CCS(=O)(=O)c2cccc(Nc3ccc(-c4ccsc4)cn3)c2)CC1 | 938 | –
23 | CC(C)c1ccc(CN2CCC(CNC(=O)c3cc(-c4cccc(C(F)(F)F)c4)cs3)C2)cc1 (stereo unspecified) | 914 | –
24 | O=C(Nc1ccc(Cn2ncc(N3CCCNCC3)c(Cl)c2=O)cc1)Nc1cc(C(F)(F)F)cc(C(F)(F)F)c1 | 588 | –
25 | CN(C)CCNCc1ccc(-c2cccc(-c3nc4ccccc4[nH]3)c2)cc1 | 717 | –

Row | Structure (SMILES) | XC50 (Plasmodium falciparum, 3D7) [nM] | XC50 [nM]
26 | CCNc1cc(C(=O)N[C@@H](Cc2ccccc2)[C@H](O)CNCCCc2ccc(OC)cc2)cc(N2CCCC2=O)c1 | 556 | –
27 | O=C(NCCN1CCCC1)c1cccc(-c2ccc(-c3nc4ccccc4[nH]3)cc2)c1 | 919 | –
28 | S=C(Nc1ccc2c(c1)OCCO2)NC1CCC(CN2CCC(c3c[nH]c4ccccc34)CC2)CC1 (stereo unspecified) | 653 | 1000
29 | CCCCCCCCOc1c(OCC)cc(Cc2cnc(N)nc2N)cc1OCC | 1530 | –
30 | c1ccc(CNCc2ccc(-c3ccc(-c4nc5ccccc5[nH]4)cc3)cc2)cc1 | 338 | –
31 | O=C(NCCCc1ccccc1)c1ccc(O)c(-c2cc(Cl)cc(Cl)c2)c1 | 567 | –
32 | CC(C)N(CCOc1ccc2c(c1)N(C(=O)Nc1ccc(Cl)c(Cl)c1)CC2)C(C)C | 367 | –
33 | COc1ccc2nc3cc(Cl)ccc3c(N)c2c1 | 165 | –
34 | COc1ccc2[nH]ccc(=NN=Cc3ccc(F)cc3)c2c1 | 720 | –
35 | O=C(c1ccc(-c2ccc(-c3nc4cc(C(F)(F)F)ccc4[nH]3)s2)cc1)N1CCN(CCc2ccccc2)CC1 | 592 | –
36 | CCCCCCP(=O)(COc1ccc(CCN(CC(O)COc2cccc3[nH]c(C(N)=O)cc23)CC(O)COc2cccc3[nH]c(C(N)=O)cc23)cc1)OCCCC (stereo unspecified) | 724 | –
37 | CC(C)C[C@H](NC(=O)c1ccc(OCCN2CCOCC2)cc1)C(=O)N[C@H](/C=N/N(C)C(=O)c1ccccc1)CCc1ccccc1 | 269 | –
38 | COc1ccc(-c2cccc(NC(=O)c3cccc(Cl)c3)c2)cc1CN1CCCC1 | 731 | –
39 | CS(=O)(=O)c1ccccc1CNC(=O)c1ccc(-c2ccc(-c3nc4cc(C(F)(F)F)ccc4[nH]3)s2)cc1 | 236 | –
40 | O=C(CSc1nnc(O)n1Cc1ccccc1)Nc1ccccc1-c1ccccc1 | 953 | –
41 | CN(C)S(=O)(=O)n1ccc2c3c(N)nc(N)nc3ccc21 | 45.9 | –
42 | CCCCn1c(SC(C)C)nc2c(c1=O)C1(CCCCC1)Cc1ccccc1-2 | 666 | –
43 | CCOc1ccccc1CNc1nccc(NCCc2cn(C)c3ccccc23)n1 | 1260 | –
44 | CC1(CCN2CCC(c3c[nH]c4cnccc34)CC2)CCCc2c(Br)cccc2C1=O (stereo unspecified) | 195 | –
45 | O=C(C=C1c2ccccc2-c2ccccc21)NC1CCC(CN2CCC(c3c[nH]c4ccccc34)CC2)CC1 (stereo unspecified) | 795 | 697
46 | COc1cc2c(cc1OC)CN(CCCCNC(=O)c1ccc(NC(=O)c3cc(Cl)cc(Cl)c3)cc1)CC2 | 778 | –
47 | CCN(CC)CCNc1ccc(Nc2ccnc3cc4ccccc4cc23)cc1 | 197 | –
48 | c1ccc(COc2ccc(Nc3ncnc4cnc(-c5ccc(CN6CCCCC6)o5)cc34)cc2)cc1 | 967 | –
49 | O=C(Cc1ccc([N+](=O)[O-])cc1)N1CCc2cc3nccc(N4CCN5CCC[C@@H]5C4)c3cc21 | 843 | –
